The nature of data set [1]: Prodrug conversion in brain of BALB/c mouse assessed as SN38 release at 20 mg/kg, ip measured after 4 hrs by UHPLC-MS/MS analysis. In kind it is ADME, organism-based. Particulars: in vivo.
A short description of data set [2]: Prodrug conversion in kidney of BALB/c mouse assessed as SN38 release at 20 mg/kg, ip measured after 4 hrs by UHPLC-MS/MS analysis. Particulars: in vivo. In kind it is ADME, organism-based.
Data set [3] in a line: Prodrug conversion in intestine of BALB/c mouse assessed as SN38 release at 20 mg/kg, ip measured after 4 hrs by UHPLC-MS/MS analysis. Format: ADME, organism-based. The following applies: in vivo.
Data set [4] is described as follows: Prodrug conversion in lung of BALB/c mouse assessed as SN38 release at 20 mg/kg, ip measured after 4 hrs by UHPLC-MS/MS analysis. Particulars: in vivo. Format: ADME, organism-based.
Data set [5] concerns COLO 205. In words: Cytotoxicity against human COLO 205 cells incubated for 48 hrs by SRB assay. Particulars: COLO 205, 48 h. Format: functional, cell-based.
Data set [6] can be described thus: Prodrug conversion in spleen of BALB/c mouse assessed as SN38 release at 20 mg/kg, ip measured after 4 hrs by UHPLC-MS/MS analysis. In kind it is ADME, organism-based. Particulars: in vivo.
A short description of data set [7]: Prodrug conversion in heart of BALB/c mouse assessed as SN38 release at 20 mg/kg, ip measured after 4 hrs by UHPLC-MS/MS analysis. Format: ADME, organism-based. The following applies: in vivo.
Data set [8] concerns Colorectal cancer cell. Kind of data set: Antitumor activity against AOM/DSS-induced orthotopic CRC BALB/c mouse model assessed as reduction in tumor area at 20 mg/kg, ip administered every other day for 2 weeks by dissecting microscopic analysis. In kind it is functional, organism-based.
A short description of data set [9]: Prodrug conversion in stomach of BALB/c mouse assessed as SN38 release at 20 mg/kg, ip measured after 4 hrs by UHPLC-MS/MS analysis. The following applies: in vivo. In kind it is ADME, organism-based.
The nature of data set [10]: Biodistribution in gastrointestinal tract of BALB/c mouse at 20 mg/kg, ip measured after 4 hrs by UHPLC-MS/MS analysis. In kind it is ADME, organism-based. Particulars: in vivo.
Data set [11] relates to HCT-116. Kind of data set: Cytotoxicity against human HCT-116 cells incubated for 48 hrs by SRB assay. The following applies: HCT-116, 48 h. In kind it is functional, cell-based.
Data set [12] in a line: Prodrug conversion in liver of BALB/c mouse assessed as SN38 release at 20 mg/kg, ip measured after 4 hrs by UHPLC-MS/MS analysis. Format: ADME, organism-based. The following applies: in vivo.
The nature of data set [13]: Drug uptake in human COLO 205 cells assessed as drug internalization in presence of 4.5 g/L glucose by fluorescence based assay. In kind it is ADME, cell-based.
A short description of data set [14]: Stability in human plasma assessed as half life by RP-HPLC analysis. Format: ADME, cell-free.
Data set [15] deals with HT-29. Kind of data set: Cytotoxicity against human HT-29 cells incubated for 48 hrs by SRB assay. In kind it is functional, cell-based. Particulars: HT-29, 48 h.
Data set [16] in a line: Drug uptake in plasma of BALB/c mouse at 20 mg/kg, ip measured after 3 hrs by UHPLC-MS/MS analysis. In kind it is ADME, organism-based. Particulars: in vivo.
Data set [17] can be described thus: Biodistribution in colorectal tumor site of BALB/c mouse at 20 mg/kg, ip measured after 4 hrs by UHPLC-MS/MS analysis. In kind it is ADME, organism-based, Neoplasm. Particulars: in vivo.
A short description of data set [18]: Toxicity in AOM/DSS-induced orthotopic CRC BALB/c mouse model assessed as body weight loss at 20 mg/kg, ip administered every other day for 2 weeks. Particulars: in vivo, 336 h. Format: organism-based.
A short description of data set [19]: Prodrug conversion in tumor of BALB/c mouse assessed as SN38 release at 20 mg/kg, ip measured after 4 hrs by UHPLC-MS/MS analysis. In kind it is ADME, organism-based, Neoplasm. Particulars: in vivo.

Four compounds from ChEMBL document CHEMBL5331135, “Design, Synthesis, and Evaluation of Glucose Transporter Inhibitor-SN38 Conjugates for Targeting Colorectal Cancer” (J Med Chem, 2023) can be followed below.

Activity calls are given as the source filed them. The calls are words filed in the database; no cut-off is given here.

Consider `CCc1c2c(nc3ccc(OC(=O)OCCSSCCOCCOCCOc4cc(O)c(C(=O)CCc5ccc(O)cc5)c(O)c4)cc13)-c1cc3c(c(=O)n1C2)COC(=O)[C@]3(O)CC`, for which the Drug metabolism entry in [1], in [2], in data set [3], in [4], in data set [6] and in data set [7] was “Metabolite_Detected” in each case. In addition, the Drug metabolism result in data set [9], in data set [12] and in data set [19] was “Metabolite_Detected” throughout. Moreover, the IC50 came out at 0.57 µM in data set [5], 0.0341 µM in [11] and 0.31 µM in data set [15]. For the same compound, in data set [8], the result was Active. Moreover, the Drug uptake entry in data set [10] is listed as “Active”; in [13], “Active”; in [16], “Not Active”; in data set [17], “Active”. Further, the half-life in data set [14] came out at 50 min. Moreover, the Activity result in data set [18] is “Non-Toxic”.
Consider `O=C(CCc1ccc(O)cc1)c1c(O)cc(O)cc1O[C@@H]1O[C@H](CO)[C@@H](O)[C@H](O)[C@H]1O` [PHLORIZIN], for which the half-maximal inhibitory concentration (IC50) in [5], in [11] and in data set [15] was more than 100 µM in each case.
As to `CCc1c2c(nc3ccc(OC(=O)OCCSSCCOCCOCCOc4cc(O)c(C(=O)CCc5ccc(O)cc5)c(O[C@@H]5O[C@H](CO)[C@@H](O)[C@H](O)[C@H]5O)c4)cc13)-c1cc3c(c(=O)n1C2)COC(=O)[C@]3(O)CC`, the IC50 in data set [5] is 0.64 µM; in data set [11] it was 0.0423 µM; in data set [15], 0.51 µM. Moreover, in data set [14], the half-life came to 20 min.
`CCc1c2c(nc3ccc(O)cc13)-c1cc3c(c(=O)n1C2)COC(=O)[C@]3(O)CC` [7-ETHYL-10-HYDROXYCAMPTOTHECIN]: the concentration for half-maximal inhibition (IC50) in [5] turned out to be 0.00075 µM; in data set [11], 0.0549 µM; in data set [15] it was 0.43 µM.
